Test results as given in publication PMC9313812, “The Pseudo‐Natural Product Rhonin Targets RHOGDI” (Angewandte Chemie (International Ed. in English), 2022).
Where two headings read alike, the source gives them in different places.

Experiments:
C3H/10T1/2 cells = test: Osteoblast differentiation assay (ODA): purmorphamine-induced osteogenesis, alkaline phosphatase luminescence readout; type: cell-based, mouse; design: key to Osteogenesis IC50: Compounds are marked inactive when no inhibition was observed at the highest test concentration of 30 µM; conditions: for IC50 / Osteogenesis IC50: 1.5 µM purmorphamine, 96 h, n=3; for Inhibition of Hh-/purmorphamine-induced osteogenesis (in words): C3H/10T1/2 cells
Experimental: Supplementary Table S7. Inhibition of osteogenesis assay. C3H10T1/2 cells were incubated with 1.5 µM purmorphamine and compounds or DMSO as a control for 96 h. The activity of alkaline phosphatase was assessed by means of a luminescence readout. Values for cells, which were treated with DMSO and purmorphamine, were set to 100% and data were measured in […]
concentration of 30 µM. All data are mean values of three independent experiments (n = 3) ± […]
Compound Osteogenesis IC50
(1 picture or pasted object on this page, not shown here)
NIH/3T3 cells were obtained from DSMZ, Germany (DSMZ ACC 59) and were cultured in DMEM (high glucose) supplemented with 10% heat-inactivated FCS, 2 mM L -glutamine and 1 mM sodium pyruvate. Shh -LIGHT2 cells (NIH/3T3 cells stably transfected with a Gli-responsive firefly luciferase reporter plasmid and a pRL-TK constituitive Renilla luciferase expression vector)[4] were cultured in the same culturing medium supplemented with 400 μg ml −1 G418 and 150 μg ml −1 Zeocin as selecting agents. The murine osteoblasts C3H/10T1/2 (ATCC CCL-226) were obtained from ATCC, USA and were cultured in DMEM (high glucose) supplemented with 10% heat-inactivated FCS, 6 mM L -glutamine, 1 mM sodium pyruvate. HEK293T cells (ATCC, England) were grown in DMEM containing 10% FBS, 100 U ml −1 penicillin and 0.1 mg ml −1 streptomycin. All cell lines were maintained at 37 °C and 5% CO 2 in a humidified atmosphere. All the cell lines were regularly assayed for mycoplasma and were confirmed to be mycoplasma-free. Transfection of DNA constructs and siRNAs were performed using FuGENE HD (Promega), Lipofectamine® LTX (Invitrogen) and DharmaFECT™ (GE Healthcare) transfection reagent according to the manufacturer’s […]
Osteoblast differentiation assay
The osteoblast differentiation assay was performed by the Compound Management and Screening Center (COMAS) in Dortmund, Germany. C3H/10T1/2 cells were seeded (800 per well) in white 384-well plates or (6000 per well) in 96-well plates. After incubation for 16 h, compounds or DMSO were added to the cells using the acoustic nanoliter dispenser ECHO 520 (Labcyte) and osteogenesis was induced with 1.5 µM purmorphamine. Plates were incubated for 96 h at 37 °C and 5% CO2. Alkaline phosphatase activity was measured by replacing the medium with osteogenesis-lysis buffer (lysis buffer: 100 mM Tris pH 9.5, 250 mM NaCl, 25 mM MgCl2, 1% Triton X-100, sterile filtered) containing 1:100 chemiluminescent substrate CDP-Star® (Promega, 384-well plates: 35 µL, 96-well plates: 50 µL) for one hour in the dark at 25 °C. In 384-well plates, the luminescence was monitored using the Paradigm plate reader (Molecular Devices, USA), whereas Spark plate reader (Tecan, Austria) was used to measure luminescence in 96-well plates. Dose-response analyses were performed for all hit compounds […]
using a three-fold dilution series starting from a concentration of 30 μM. Half-maximal inhibitory concentrations (IC50) were calculated using the Quattro software suite (Quattro Research, Planegg, Germany) or GraphPad Prism 7 (GraphPad, USA).
The effect of test compounds on the viability of C3H/10T1/2 cells was determined by CellTiter-Glo Luminescence cell viability assay (Promega). Cells were treated as described for the osteogenesis assay prior to addition of the CellTiter-Glo® reagent according to manufacturer’s protocol. Compounds causing at least a 50% reduction in the osteogenesis assay and retaining cell viability of at least 80% were considered as hits. Dose-response analyses were performed for all hit compounds using a three-fold dilution series starting from a concentration of 30 μM. Half-maximal inhibitory concentrations (IC50) were calculated using the Quattro software suite (Quattro Research GmbH). […]

Shh-LIGHT2 cells = test: GLI-dependent reporter gene assay (RGA); type: cell-based; conditions: Shh Light2; Figure 2a; mean of three independent experiments
Experimental: using a three-fold dilution series starting from a concentration of 30 μM. Half-maximal inhibitory concentrations (IC50) were calculated using the Quattro software suite (Quattro Research, Planegg, Germany) or GraphPad Prism 7 (GraphPad, USA). […]
GLI-dependent reporter gene assay
Shh-LIGHT2 cells were seeded (2.5×10^4 per well) in 96-well plates. After incubation for 16 h, medium was replaced by low serum-containing medium (0.5% FCS) supplemented with 1.5 μM purmorphamine and various concentrations of the compounds or DMSO as a control and cells were incubated for 48 h. […]

[1] = Mus musculus, C3H 10T1/2, Table S13, Rac, Cdc42 and ROCK inhibitors, read-out: Osteogenesis IC50 ± SD
[2] = Table S7, mean ± SD, highest test concentration 30 µM
[3] = Mus musculus, C3H 10T1/2, Table S7, mean ± SD, highest test concentration 30 µM, read-out: Osteogenesis IC50
[4] = Table S13, Rac, Cdc42 and ROCK inhibitors, read-out: Osteogenesis IC50 ± SD

SMILES | Osteogenesis IC50 (C3H/10T1/2 cells; [2]) | further results
COc1cc(C2=NC(C)=C(C(=O)Nc3ccc4[nH]ncc4c3)C(c3ccc(Cl)cc3F)N2)ccn1 (stereo not shown) [GSK534911A, reference compound] | – | IC50 (C3H/10T1/2 cells; [1]): 1550 ± 500 nM
COC(=O)C=C(C(=O)OC)C1(C(=O)OC)N=C(c2ccc(Br)cc2)C2C(=O)N(c3ccccc3)C(=O)C21 (stereo not shown) [7i] | inactive | –
CN(C)CCOc1cc(-c2cn[nH]c2)ccc1NC(=O)C1COc2ccccc2O1 (stereo not shown) [SR-3677, reference compound] | – | IC50 (C3H/10T1/2 cells; [1]): 1720 ± 100 nM
COC(=O)C12NC(c3ccc(C)cc3)(C3C(=O)N(C)C(=O)C31)C1C(=O)N(c3ccccc3)C(=O)C12 (stereo not shown) [5b] | inactive | –
COC(=O)C1(CCC(=O)C=Cc2ccccc2)N=C(c2ccc(Br)cc2)C2C(=O)N(C)C(=O)C21 (stereo not shown) [7e] | – | IC50 (C3H/10T1/2 cells; [3]): 2810 ± 400 nM; IC50 (Shh-LIGHT2 cells): 4240 nM
COC(=O)C1(C2CC(=O)N(c3ccccc3)C2=O)N=C(c2ccc(C(F)(F)F)cc2)C2C(=O)N(C)C(=O)C21 (stereo not shown) [6b] | inactive | –
COC(=O)C1(C2CC(=O)N(c3ccccc3)C2=O)N=C(c2ccc(C(C)(C)C)cc2)C2C(=O)N(C)C(=O)C21 (stereo not shown) [6d] | inactive | –
COC(=O)C12NC(c3ccc(Br)cc3)(C3C(=O)N(c4ccccc4)C(=O)C31)C1C(=O)N(C3CCCCC3)C(=O)C12 (stereo not shown) [5f] | inactive | –
COC(=O)C1(CCC(C)=O)N=C(c2ccc(Br)cc2)C2C(=O)N(c3ccccc3)C(=O)C21 (stereo not shown) [7f] | inactive | Inhibition of Hh-/purmorphamine-induced osteogenesis (in words) (C3H/10T1/2 cells): activity was lost
COC(=O)C1(C2CC(=O)N(c3ccccc3)C2=O)N=C(c2ccc(Br)cc2)C2C(=O)N(C)C(=O)C21 (stereo not shown) [6a] | inactive | –
Cc1cncc2cccc(S(=O)(=O)N3CCCNC[C@@H]3C)c12 [H-1152, reference compound] | – | IC50 (C3H/10T1/2 cells; [4]): 2870 nM
Cc1cc(C)nc(NS(=O)(=O)c2ccc(NC(=S)NC(=O)COc3ccc(Br)cc3Cl)cc2)n1 [ZCL278, reference compound] | – | Osteogenesis, activity at 2 µM (C3H/10T1/2 cells; Table S13, 2 µM, DMSO + purmorphamine = 100%): 75%
O=c1cc(CN2CCOCC2)occ1OCCCCCSc1ccnc2cc(C(F)(F)F)ccc12 [EHT 1864, reference compound] | – | IC50 (C3H/10T1/2 cells; [4]): > 2000 nM
CCCN1C(=O)C2C(C1=O)C1(c3ccc(Br)cc3)NC2(C(=O)OC)C2C(=O)N(c3ccccc3)C(=O)C21 (stereo not shown) [5e] | inactive | –
COC(=O)C12NC(c3ccc(Cl)cc3)(C3C(=O)N(C)C(=O)C31)C1C(=O)N(c3ccccc3)C(=O)C12 (stereo not shown) [5d] | inactive | –
COC(=O)C1(C2CC(=O)N(c3ccccc3)C2=O)N=C(c2ccc(F)cc2)C2C(=O)N(C)C(=O)C21 (stereo not shown) [6c] | inactive | –
CCn1c2ccccc2c2cc(Nc3ccnc(NCCCN4CCOCC4)n3)ccc21 [EHop-016, reference compound] | – | IC50 (C3H/10T1/2 cells; [4]): 881 ± 80 nM
COC(=O)C12NC(c3ccc(Br)cc3)(C3C(=O)N(C)C(=O)C31)C1C(=O)N(c3ccccc3)C(=O)C12 (stereo not shown) [5a] | inactive | –
COC(=O)C1(CCC(C)=O)N=C(c2ccc(Br)cc2)C2C(=O)N(C)C(=O)C21 (stereo not shown) [7c] | – | Inhibition of Hh-/purmorphamine-induced osteogenesis (in words) (C3H/10T1/2 cells): active; IC50 (C3H/10T1/2 cells; [3]): 6200 ± 1300 nM; IC50 (Shh-LIGHT2 cells): 8000 nM
COC(=O)[C@@]1([C@H](CC(=O)c2ccc(Br)cc2)c2ccc(C(=O)NCCOCCOCCNC(=O)OC(C)(C)C)cc2)N=C(c2ccc(Br)cc2)[C@H]2C(=O)N(C)C(=O)[C@H]21 [S10b] | inactive | –
COC(=O)C1(C=CC(=O)c2ccccc2)N=C(c2ccc(Br)cc2)C2C(=O)N(C)C(=O)C21 (stereo not shown) [7g] | – | IC50 (C3H/10T1/2 cells; [3]): 3130 ± 200 nM; IC50 (Shh-LIGHT2 cells): 6150 nM
COC(=O)C1(C(CC(=O)c2ccc(Br)cc2)c2ccccc2)N=C(c2ccc(Br)cc2)C2C(=O)N(C)C(=O)C21 (stereo not shown) [7b] | inactive | Inhibition of Hh-/purmorphamine-induced osteogenesis (in words) (C3H/10T1/2 cells): abolished activity
COC(=O)C1(C2CC(=O)N(c3ccccc3)C2=O)N=C(c2cccc(OC)c2)C2C(=O)N(C)C(=O)C21 (stereo not shown) [6e] | inactive | –
COC(=O)c1ccc(C23NC(C(=O)OC)(C4C(=O)N(C)C(=O)C42)C2C(=O)N(c4ccccc4)C(=O)C23)cc1 (stereo not shown) [5c] | inactive | –
COC(=O)C=C(C(=O)OC)C1(C(=O)OC)N=C(c2ccc(Br)cc2)C2C(=O)N(C)C(=O)C21 (stereo not shown) [7h] | inactive | –
